US12655174B2, “Adenosine A3 receptor agonists, preparation methods and uses thereof” (ZHEJIANG VIMGREEN PHARMACEUTICALS, LTD., priority 2020, dated 2026)

Columns and labels:
ADORA3 receptor = molecular target: T1, ADORA3 receptor (Homo sapiens, UniProt P0DMS8); test: Agonistic effect on adenosine A3 receptor by FLIPR assay (calcium flux assay); format: cell-based; conditions: agonist mode
T1 sequence (P0DMS8 1-318): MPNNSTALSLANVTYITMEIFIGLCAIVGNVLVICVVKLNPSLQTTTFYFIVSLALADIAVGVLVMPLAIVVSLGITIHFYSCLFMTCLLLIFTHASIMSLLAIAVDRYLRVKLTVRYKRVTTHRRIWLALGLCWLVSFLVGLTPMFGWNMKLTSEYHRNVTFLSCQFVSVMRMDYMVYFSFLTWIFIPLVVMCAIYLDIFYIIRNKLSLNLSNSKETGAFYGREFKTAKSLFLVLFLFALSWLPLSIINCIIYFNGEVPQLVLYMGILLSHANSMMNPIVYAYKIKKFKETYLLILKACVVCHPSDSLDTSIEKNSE
Description: Example 27: Agonistic Effect of Compound on Adenosine A3 Receptor by FLIPR Assay (Calcium Flux Assay)
First Day: Cell Inoculation
• 1) With regard to ADORA3 receptor, cultured cells were used for inoculation: the culture medium was aspirated and the cells were washed twice with 10 mL of DPBS. 2 mL of 0.05% EDTA-trypsin was added and the cells were incubated at 37° C. for 1 minute. Then 10 mL of the culture medium was added to stop the digestion and the cell suspension was transferred to a 50-mL tapered tube. • 2) The 50-mL tapered tube containing the various cells was centrifuged at 300 g for 5 minutes. • 3) A supernatant was aspirated and no cells should be aspirated. • 4) The cell precipitate was resuspended in 6-8 mL of the culture medium, and then 0.5 mL of the cells were taken out for cell counting by using a Vi-cell XR cell viability analyzer. • 5) The cell suspension was diluted to 1×10^6 cells/mL (20 μL of 20,000 cells per well) in the culture medium and the cells were inoculated into a cell plate (384-well Poly-D-lysine protein-coated plate, Greiner-781946). • 6) The plate was placed in a 37° C./5% CO2 incubator for 16-20 hours. Second Day: • 1) Preparation of 2×Fluo-4 Direct™ uptaking dye • a. Preparation of probenecid solution • 1 mL of FLIPR assay buffer was added to 77 mg of probenecid (provided by Fluo-4 Direct™ calcium assay kit) to be prepared into 250 mM of a probenecid solution. The fresh probenecid solution was used daily. • b. 2×(8 μM) Fluo-4 Direct™ loading dye (per 10 mL)
A vial of the Fluo-4 Direct™ crystal was thawed and then 10 mL of the FLTPR analytical buffer was added to the vial. Then 0.2 mL of 250 mM of a probe solution was added to every 10 mL Fluo-4 Direct™ crystal to a final assay concentration of 2.5 mM. The solution was vortexed and stood for >5 min at a dark place. 2×Fluo-4 Direct™ uptaking dye was freshly prepared daily. • 2) Compound preparation • a. Preparation of compound plate: all reference and test compounds were serially diluted 4-fold in 10 points by using an Echo liquid processor and then 900 nL of the diluted compounds were transferred to a compound plate. • b. 30 μL FLIPR analytical buffer was added to the compound plate and the plate was centrifuged at 300 g for 1 minute. • 3) FLIPR analysis • a. With regard to ADORA3 receptor: firstly, the cell plate was taken out from a culture box. The culture medium was then aspirated and 20 μL of the FLIPR analytical buffer was added. The cell plate was placed in an incubator for 45 minutes and at a room temperature for 15 minutes. • b. To run an experimental solution on […], 10 μL of the FLIPR analytical buffer was transferred from the compound plate to a cell plate, and then the fluorescent signal was read. Then 10 μL of a compound solution was transferred from the compound plate to the cell plate and the fluorescence signal was read. “Max−min” was calculated from Reader 91 to an allowed maximum value. • c. With regard to agonist: activation %=(RLU−LC)/(HC−LC)*100, • wherein RLU=relative light unit, allowed maximum signal was 91; HC=average signal of high concentration agonist; and LC=mean signal of DMSO well. • d. Data were fitted to a model “log (agonist) versus response-variable slope” by using GraphPad Prism 5 to determine an EC50 value. • e. […] 2. Test Result

[1] = molecular target: T2, ADORA3 receptor (CHO cells stably expressing ADORA3 receptor) (Homo sapiens, UniProt P0DMS8); test: Effect of compound on intracellular cAMP level by adenosine A3 receptor agonism; format: cell-based; conditions: forskolin-stimulated
T2 construct: expressed in transfected cells
T2 sequence (P0DMS8 1-318): T1 sequence (P0DMS8 1-318)
In short: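 Agonism read as change in forskolin-stimulated cAMP by TR-FRET competition (Eu-cAMP tracer, ULight anti-cAMP antibody). Compound tested as 10 three-fold dilutions on ADORA3-CHO cells in buffer containing rolipram, incubated at 37 °C. Hill fit of % activation against log concentration gives EC50.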

[2] = Pharmacokinetic test of compound in SD rat; format: in vivo; conditions: SD rats, intragastric administration (IG), cassette dosing
Description: Example 28: Pharmacokinetic Test of Compound in SD Rat
The animal species used in this experiment were SD rats. There were 3 animals per group. The rats were dosed in cassette format, i.e., multiple (1-6) different compounds were dosed simultaneously to the same group of the SD rats. The vehicle used for the drug was 5% DMSO+5% Solutl+90% ([…] methylcellulose M450), and the administration route was intragastric administration (IG).

Row | SMILES | EC50 (ADORA3 receptor) [nM] | EC50 [1] [nM] | AUC_D [2] [kg·ng·h/mL/mg]
1 | CNC(=O)[C@H]1OC(n2cnc3c(NCc4ccccn4)nc(-c4cncc(F)c4)nc32)[C@H](O)[C@@H]1O (stereo in doubt) [compound 305, (2S,3S,4R,5S)-5-(2-(5-fluoropyridin-3-yl)-6-((pyridin-2-ylmethyl)amino)-9H-purin-9-yl)-3,4-dihydroxyl-N-methyltetrahydrofuran-2-carboxamide] | 10.9 | 2.73 | 161.47
2 | CNC(=O)[C@H]1O[C@@H](n2cnc3c(NCc4cc(C)ccn4)nc(-c4cncc(F)c4)nc32)[C@H](O)[C@@H]1O [compound 71, (2S,3S,4R,5R)-5-(2-(5-fluoropyridin-3-yl)-6-(((4-methylpyridin-2-yl)methyl)amino)-9H-purin-9-yl)-3,4-dihydroxyl-N-methyltetrahydrofuran-2-carboxamide] | 1.93 | < 0.51 | 757.44
3 | CNC(=O)[C@H]1O[C@@H](n2cnc3c(NCc4cccc(C)n4)nc(-c4cncc(F)c4)nc32)[C@H](O)[C@@H]1O [compound 106] | 17.6 | 3.02 | 521.57
4 | CNC(=O)[C@H]1O[C@@H](n2cnc3c(NCc4cccc(C)n4)nc(-c4cncc(Cl)c4)nc32)[C@H](O)[C@@H]1O [compound 112] | 44.4 | 3.53 | 1790.18
5 | CNC(=O)[C@H]1O[C@@H](n2cnc3c(NCc4cccc(OC)n4)nc(-c4cncc(Cl)c4)nc32)[C@H](O)[C@@H]1O [compound 159] | 59.3 | 4.42 | 
6 | CNC(=O)[C@H]1O[C@@H](n2cnc3c(NCc4cc(C)ccc4Cl)nc(-c4cncc(Cl)c4)nc32)[C@H](O)[C@@H]1O [compound 177, (2S,3S,4R,5R)-5-(6-(2-chloro-5-methylbenzylamino)-2-(5-chloropyridin-3-yl)-9H-purin-9-yl)-3,4-dihydroxyl-N-methyl-tetrahydrofuran-2-formamide] | 70.3 | 2.08 | 5247.70
7 | CNC(=O)[C@H]1O[C@@H](n2cnc3c(NCc4cc(Cl)ccn4)nc(-c4cncc(F)c4)nc32)[C@H](O)[C@@H]1O [compound 183, (2S,3S,4R,5R)-5-(6-((4-chloropyridin-2-yl)methylamino)-2-(5-fluoropyridin-3-yl)-9H-purin-9-yl)-3,4-dihydroxyl-N-methyl-tetrahydrofuran-2-formamide] | 9.07 | < 0.51 | 947.63
8 | CNC(=O)[C@H]1O[C@@H](n2cnc3c(NCc4cc(Cl)ccn4)nc(-c4cncc(Cl)c4)nc32)[C@H](O)[C@@H]1O [compound 184, (2S,3S,4R,5R)-5-(6-((4-chloropyridin-2-yl)methylamino)-2-(5-chloropyridin-3-yl)-9H-purin-9-yl)-3,4-dihydroxyl-N-methyl-tetrahydrofuran-2-formamide] | 13 | < 0.51 | 
9 | CNC(=O)[C@H]1O[C@@H](n2cnc3c(NCc4cc(C)ccn4)nc(-c4cccnc4)nc32)[C@H](O)[C@@H]1O [compound 186, (2S,3S,4R,5R)-3,4-dihydroxyl-N-methyl-5-(6-((4-methylpyridin-2-yl)methylamino)-2-(pyridin-3-yl)-9H-purin-9-yl)-tetrahydrofuran-2-formamide] | 11.8 | < 0.51 | 786.27
10 | CNC(=O)[C@H]1O[C@@H](n2cnc3c(NCc4cc(C)ccc4F)nc(-c4cncc(Cl)c4)nc32)[C@H](O)[C@@H]1O [compound 226, (2S,3S,4R,5R)-5-(2-(5-chloropyridin-3-yl)-6-((2-fluoro-5-methylbenzyl)amino)-9H-purin-9-yl)-3,4-dihydroxyl-N-methyltetrahydrofuran-2-carboxamide] | 33.5 | 1.2 | 20055.61
11 | CNC(=O)[C@H]1O[C@@H](n2cnc3c(NCc4cccc(Cl)n4)nc(-c4cncc(F)c4)nc32)[C@H](O)[C@@H]1O [compound 227, (2S,3S,4R,5R)-5-(6-(((6-chloropyridin-2-yl)methyl)amino)-2-(5-fluoropyridin-3-yl)-9H-purin-9-yl)-3,4-dihydroxyl-N-methyltetrahydrofuran-2-carboxamide] | 3.53 |  | 233.07
12 | CNC(=O)[C@H]1O[C@@H](n2cnc3c(NCc4cc(C)cc(C)c4)nc(-c4cncc(C)c4)nc32)[C@H](O)[C@@H]1O [compound 231, (2S,3S,4R,5R)-5-(6-((3,5-dimethylbenzyl)amino)-2-(5-methylpyridin-3-yl)-9H-purin-9-yl)-3,4-dihydroxyl-N-methyltetrahydrofuran-2-carboxamide] | 11.2 |  | 17240.04
13 | [2H]C([2H])([2H])NC(=O)[C@H]1O[C@@H](n2cnc3c(NCc4ccco4)nc(-c4cncc(Cl)c4)nc32)[C@H](O)[C@@H]1O [compound 256, (2S,3S,4R,5R)-5-(2-(5-chloropyridin-3-yl)-6-((furan-2-ylmethyl)amino)-9H-purin-9-yl)-3,4-dihydroxyl-N-(methyl-d3)tetrahydrofuran-2-carboxamide] | 98.5 | 11.6 | 706.00
14 | CNC(=O)[C@H]1O[C@@H](n2cnc3c(NCc4cc(C)ccn4)nc(-c4cncc(Cl)c4)nc32)[C@H](O)[C@@H]1O [compound 293, (2S,3S,4R,5R)-5-(2-(5-chloropyridin-3-yl)-6-(((4-methylpyridin-2-yl)methyl)amino)-9H-purin-9-yl)-3,4-dihydroxyl-N-methyltetrahydrofuran-2-carboxamide] | 3.27 | < 0.51 | 2016.46
15 | CNC(=O)[C@H]1O[C@@H](n2cnc3c(NCc4cc(OC)ccn4)nc(-c4cncc(Cl)c4)nc32)[C@H](O)[C@@H]1O [compound 296, (2S,3S,4R,5R)-5-(2-(5-chloropyridin-3-yl)-6-(((4-methoxypyridin-2-yl)methyl)amino)-9H-purin-9-yl)-3,4-dihydroxyl-N-methyltetrahydrofuran-2-carboxamide] | 53.6 | 1.28 | 
16 | CNC(=O)[C@H]1O[C@@H](n2cnc3c(NCc4ccccn4)nc(-c4cncc(Cl)c4)nc32)[C@H](O)[C@@H]1O [compound 306, (2S,3S,4R,5S)-5-(2-(5-chloropyridin-3-yl)-6-((pyridin-2-lymethyl)amino)-9H-purin-9-yl)-3,4-dihydroxyl-N-methyltetrahydrofuran-2-carboxamide] | 39.2 | 5.81 | 659.04
17 | CNC(=O)[C@H]1O[C@@H](n2cnc3c(NCc4cccc(Cl)n4)nc(-c4cncc(Cl)c4)nc32)[C@H](O)[C@@H]1O [compound 308] | 71.4 | 3.27 | 986.00
